For orientation: melting point means the temperature of the solid-liquid transition.

As to `NS(=O)(=O)c1ccc(CCn2c(S)nc3ccccc3c2=O)cc1`, the melting point is 294 to 296 °C.

`Clc1ccc(Cl)c(OCCBr)c1` registered a melting point of 57 to 59 °C.

As for `CCc1ccc(-c2ccc(C=O)o2)cc1`, the melting point lay in the range of 45 to 47 °C.

For `COc1ccc(-n2c(N)nc3ccccc32)cc1`, the melting point lay within 181 to 183 °C.

`COc1cccc2c1C(=O)CC2` yielded a melting point of 99 to 102 °C.

`CCc1c(C)[nH]c2ccc(Oc3ccccc3)cc2c1=O` came in with a melting point of 266 to 268 °C.

Compound `O=[N+]([O-])c1ccccc1CSc1ccc(C(F)(F)F)cn1` came in with a melting point of 64 to 66 °C.

With `COC(=O)c1[nH]n(-c2ccc(C(=O)O)cc2)c(=O)c1CCO`, the melting point was 233 to 235 °C.

As for `Nc1ccc(C(=O)NCCN2CCCC2)cc1`, the melting point fell in the range of 137 to 139 °C.

The compound `CSc1ccc2cc(CCl)c(Cl)nc2c1` showed a melting point of 151 to 153 °C.

In the case of `Cc1c(N)cccc1S(=O)(=O)NC(C)(C)C`, the melting point was in the range of 185 to 187 °C.

`N#CCn1c(C(=O)O)cc2ccccc21` showed a melting point of 192 to 194 °C.

In turn, `COc1ccc(N)c(C(=O)NC2CC2)c1` gave a melting point of 137 to 139 °C.

Consider `Nc1nncc(-c2ccc(Br)cc2)n1`, for which the melting point fell in the range of 258 to 260 °C.

On to `Cc1ccc(-c2cc(C(=O)O)[nH]n2)cc1`, for which the melting point lay in the range of 251 to 253 °C.

Take `COc1ccc(NC(=O)CSCC(=O)O)cc1`: the melting point was 112 to 114 °C.

As to `COC(=O)C#Cc1ccc(F)cc1F`, the melting point lay in the range of 58 to 60 °C.

The compound `O=C1C(Br)CCCN1c1ccc(OC(F)F)cc1` (stereo not given) displayed a melting point of 72 to 74 °C.

The compound `CC(Cl)C(=O)c1ccc(Cl)cc1` (stereo not given) gave a melting point of 58 to 60 °C.

`Cn1[nH]c(-c2ccco2)c(-c2ccc3c(c2)OCO3)c1=N`: the melting point is 140 to 142 °C.

`CN(C(=O)OC(C)(C)C)c1ccc(O)cc1` displayed a melting point of 133 to 135 °C.

As to `Cc1nc(S)n(C2CCCCC2)c1C`, the melting point fell in the range of 218 to 220 °C.

`COc1ccc(C(C)(C)O)c(OCc2ccccc2)c1` displayed a melting point of 47 to 49 °C.

Regarding `O=C(O)c1ccc(F)nc1`, the melting point was 144 to 148 °C.

In the case of `O=c1c2ccccc2nnn1CCl`, the melting point lay within 129 to 133 °C.

Compound `CS(=O)CCC(=O)O` (stereo not given) yielded a melting point of 57 to 59 °C.

In the case of `CCC(CC)n1nc(C(=O)O)cc1C`, the melting point was 110 to 112 °C.

`O=C(O)c1cc2c(c(S(=O)(=O)Cl)c1)CCC2` displayed a melting point of 197 to 199 °C.

`CC(C)COc1cccc(C(=O)O)c1` gave a melting point of 85 to 89 °C.

Regarding `Cc1cc(=O)n2c([nH]c3ccccc32)c1C#N`, the melting point was in the range of 270 to 272 °C.

As for `O=C(NCc1ccco1)OCC(F)(F)F`, the melting point lay in the range of 35 to 37 °C.

`O=C1CCc2cc(Br)c(S(=O)(=O)Cl)cc2N1` gave a melting point of 224 to 226 °C.

For `CC(C)Oc1ccc(S(N)(=O)=O)c2ccccc12`, the melting point is 95 to 97 °C.

As to `NC(=O)CCC(C(=O)O)N1C(=O)c2ccccc2C1=O` (stereo not given), the melting point is 161 to 163 °C.

Regarding `NC(=O)CCCOc1ccc(F)cc1`, the melting point was in the range of 125 to 127 °C.

Compound `CC1C(=O)NCCN1C(=O)c1cccs1` (stereo not given) showed a melting point of 129 to 131 °C.

Consider `CC(C)C(Br)C(=O)Nc1cc(Cl)ccc1Cl` (stereo not given), for which the melting point fell in the range of 126 to 128 °C.

`Cc1ccc(S(=O)(=O)OC2C=CS(=O)(=O)C2)cc1` (stereo not given) had a melting point of 136 to 138 °C.

`Cc1nn(-c2ccccc2Cl)c2sc(C(=O)O)cc12` returned a melting point of 56 to 58 °C.

For the compound `NNC(=S)NCC1CCC1`, the melting point was 104 to 106 °C.

Turning to `CCS(=O)(=O)N1CCCC(C(=O)O)C1` (stereo not given), the melting point fell in the range of 59 to 61 °C.

For the compound `O=C(O)C=Cc1ccc(OC(F)(F)C(F)C(F)(F)F)cc1` (stereo not given), the melting point fell in the range of 159 to 163 °C.

`Cn1c(C=O)nc2cc(C(F)(F)F)ccc21` came in with a melting point of 111 to 113 °C.

The compound `Oc1ccccc1C1=NCCN1` showed a melting point of 199 to 201 °C.

On to `OCc1cc(I)c(CO)cc1I`, for which the melting point is 218 to 220 °C.

For the compound `C#CCNC(=O)CN1C(=O)C(=O)c2cc(Cl)ccc21`, the melting point lay within 267 to 269 °C.

In turn, `COc1ccc(Cc2nnc(S)n2N)cc1OC` displayed a melting point of 177 to 179 °C.

For the compound `Cc1nn(Cc2ccc(F)cc2)c2[nH]nc(N)c12`, the melting point was in the range of 140 to 142 °C.

The compound `CC(=O)c1ccccc1NC(=O)CCCCl` showed a melting point of 55 to 57 °C.

Compound `O=C1COc2ncccc2N1` had a melting point of 254 to 256 °C.

The compound `Cc1c(C(=O)O)nnn1-c1ccc(F)cc1` registered a melting point of 181 to 183 °C.

Take `CCCS(=O)(=O)Nc1cccc(N)c1C`: the melting point fell in the range of 99 to 101 °C.

Consider `CCCCOc1ccc(C(=O)NC(C(=O)O)C(C)O)cc1` (stereo not given), for which the melting point fell in the range of 130 to 132 °C.

The compound `NC(=O)C(CC(=O)O)NC(=O)OCc1ccccc1` (stereo not given) gave a melting point of 169 to 171 °C.

With `O=C(O)c1cc(/C=C/c2cccnc2)nc2ccc(Br)cc12`, the melting point lay within 335 to 337 °C.

On to `CC(Cl)C(=O)Nc1cccc(Cl)c1Cl` (stereo not given), for which the melting point lay in the range of 96 to 98 °C.

In the case of `NC(=O)C1CCCN(C(=O)c2cc(Cl)ccc2N)C1` (stereo not given), the melting point lay in the range of 229 to 231 °C.

`O=C(O)C1=NN(C2CCS(=O)(=O)C2)C(=O)CC1` (stereo not given): the melting point lay in the range of 138 to 140 °C.

The compound `COCCn1ncc2ccc(N)cc21` showed a melting point of 86 to 88 °C.

The compound `COc1ccccc1OCCC(=O)O` returned a melting point of 133 to 135 °C.

The compound `CNC(C(N)=O)c1cccc(F)c1` (stereo not given) displayed a melting point of 153 to 155 °C.

Compound `Nc1cc(-c2cccs2)no1` registered a melting point of 91 to 93 °C.

With `Nc1cccc(NC(=O)c2cccs2)c1`, the melting point was 134 to 136 °C.

Regarding `CCn1nc(C)c(C(=O)O)c1C(F)(F)Cl`, the melting point fell in the range of 111 to 113 °C.

For the compound `Cc1cn2cccnc2n1`, the melting point was in the range of 97 to 99 °C.

In turn, `Cc1ccc(C23CC4CC(CC(C(=O)O)(C4)C2)C3)cc1` returned a melting point of 174 to 176 °C.

`COc1ccc(Cl)cc1/C=C/C(=O)O` registered a melting point of 199 to 201 °C.

`O=c1cc(CCl)c2ccc(Br)cc2o1` displayed a melting point of 160 to 162 °C.

As to `CCC(NC(=O)OC(C)(C)C)(C(N)=O)C(C)C` (stereo not given), the melting point is 157 to 159 °C.

`CC(C)(C)n1cc(N)cn1` yielded a melting point of 56 to 58 °C.

As for `N#Cc1ccc(C(Cl)C(N)=O)cc1` (stereo not given), the melting point is 114 to 116 °C.

On to `CC(C)c1ccc(NC(=S)NN)cc1`, for which the melting point lay within 179 to 181 °C.

For the compound `Nc1ccc(NS(=O)(=O)c2c(Cl)cccc2Cl)cc1`, the melting point was in the range of 161 to 163 °C.

`CC(C(=O)O)n1nnc(-c2ccccc2)n1` (stereo not given) yielded a melting point of 143 to 145 °C.

As for `CCc1cc(C(=O)O)nn1C`, the melting point was 119 to 121 °C.

As for `Fc1ccc(CBr)c(Br)c1`, the melting point is 51 to 53 °C.

Take `COc1ccc2[nH]c3c(c2c1)CC(C)CC3` (stereo not given): the melting point was 59 to 61 °C.

With `O=C(O)c1cc(I)c(F)cc1F`, the melting point lay in the range of 163 to 165 °C.

`CC(=O)CC(=O)c1ccc(F)cc1` gave a melting point of 48 to 52 °C.

`CCCc1ccc(-c2ccc(N)cc2)cc1`: the melting point was in the range of 64 to 66 °C.

With `CC(=O)Nc1sc(C)c(C)c1C(=O)O`, the melting point lay in the range of 217 to 219 °C.

The compound `Cc1nnc(-c2ccc(C(=O)O)cc2)[nH]1` showed a melting point of 272 to 274 °C.

`Nc1ccc(C(=O)N2CCOCC2)cc1` had a melting point of 134 to 136 °C.

Regarding `Nc1nc2ccc(Cl)cn2n1`, the melting point lay within 183 to 185 °C.

On to `O=C(O)CSc1nnc(-c2ccc(Cl)cc2)o1`, for which the melting point was in the range of 154 to 156 °C.

For `O=C(c1ccccc1)c1ccc(F)cn1`, the melting point was in the range of 42 to 44 °C.

Compound `COCc1ccc(C(=O)O)cc1` yielded a melting point of 88 to 92 °C.

`Nc1cccc(OCc2ccc(Cl)cc2)c1` registered a melting point of 87 to 89 °C.

For the compound `Cc1ccc(N2C(=O)Cc3ccccc3C2=O)cc1`, the melting point lay in the range of 173 to 175 °C.

`O=C(O)CSc1nc2ccccc2o1` registered a melting point of 158 to 160 °C.

`CCOC(=O)C(=O)c1cc(Br)ccc1OC` showed a melting point of 69 to 71 °C.

As to `CC(Oc1ccc(C23CC4CC(CC(C4)C2)C3)cc1)C(=O)O` (stereo not given), the melting point was 153 to 155 °C.

On to `O=C(c1ccc(Cl)cc1Cl)N1CCNCC1`, for which the melting point is 108 to 110 °C.

As to `Nc1ccc(Oc2ccc(Cl)nn2)cc1`, the melting point is 105 to 107 °C.

Compound `Nc1nc(-c2ccc3ccccc3c2)n[nH]1` gave a melting point of 205 to 207 °C.

Turning to `Cc1cc(C(=O)O)c(C)nn1`, the melting point fell in the range of 132 to 134 °C.

`CNS(=O)(=O)c1cccc(N)c1C` showed a melting point of 125 to 127 °C.

Regarding `O=S(=O)(c1ccc(Cl)nc1)N1CCCCC1`, the melting point is 130 to 132 °C.

`O=C1CCCN1c1ccccc1[N+](=O)[O-]` yielded a melting point of 77 to 79 °C.

Turning to `Cc1nc(-c2cc(C(=O)O)co2)cs1`, the melting point was 186 to 188 °C.

Compound `CNC(=O)c1ccc(CN)cc1` came in with a melting point of 90 to 92 °C.

Turning to `CN(C)S(=O)(=O)c1ccc(N2CCOCC2)c(C(=O)O)c1`, the melting point lay within 218 to 220 °C.

Take `Cc1ccc(NC(=O)CO)cc1`: the melting point lay within 139 to 141 °C.

Consider `N#Cc1cnn(-c2cccc(Cl)c2)c1`, for which the melting point is 139 to 141 °C.

Take `COc1cc(CCc2cc(N)n[nH]2)cc(OC)c1`: the melting point lay in the range of 107 to 109 °C.

Regarding `Cc1ccn(-c2cc(CO)ccn2)n1`, the melting point fell in the range of 92 to 94 °C.

For `Nc1cn[nH]c(=O)c1Cl`, the melting point is 299 to 301 °C.

On to `Cc1ccc(O)c(C=O)n1`, for which the melting point lay in the range of 64 to 66 °C.

With `CS(=O)(=O)CCS(=O)(=O)c1ccc(N)cc1`, the melting point lay within 209 to 211 °C.

The compound `CC(C)(C)OC(=O)N1CC(O)CC1C(=O)O` (stereo not given) came in with a melting point of 145 to 147 °C.

As for `CC(C)COc1cn(-c2ccccc2)nc1C(=O)O`, the melting point lay in the range of 132 to 134 °C.

Consider `O=C(O)c1ccc2c(c1)C(=O)N(CC1CCCO1)C2=O` (stereo not given), for which the melting point is 153 to 155 °C.

On to `Cc1ccc2cc(C(=O)O)[nH]c2c1`, for which the melting point was in the range of 209 to 211 °C.

`CC(=O)NC=C(Cl)Cl` registered a melting point of 85 to 87 °C.

In the case of `COc1ccc(C(=O)O)cc1OCc1ccccn1`, the melting point lay within 219 to 221 °C.

For the compound `Cc1n[nH]c(C)c1C(C)C(=O)O` (stereo not given), the melting point fell in the range of 181 to 183 °C.

Consider `Cc1cc(O)cc(O)n1`, for which the melting point lay within 324 to 327 °C.

Regarding `Cc1cc(Cl)cc2cccnc12`, the melting point fell in the range of 62 to 64 °C.

Consider `C=CCn1c(N)c(C(=O)OCC)sc1=S`, for which the melting point lay within 118 to 120 °C.

In the case of `Oc1ccc(-c2noc(C3CCCO3)n2)cc1` (stereo not given), the melting point fell in the range of 96 to 98 °C.
